Values after ≈ are worked out from the molar mass of the structure shown. Residues, ends and D or L forms follow the SMILES beside them. *: point of attachment. Cbz = O=C(OCc1ccccc1)*; CH2F = FC*

This is an account of results in patent US20080249043A1, “Methods and Compositions Involving Protein Kinase C-Delta” (priority 2004, published 2008).

Data set [1] deals with PKC-δ. The data set is described as follows: Western blotting and subcellular fractionation for PKC-δ in U937 cells. The format is cell-based. The protocol:
U937 cells were treated with PMA (200 nM) or bortezomib (100 ng/ml) for 2 and 4 hours and cells were harvest for western blotting with antibody against PKC-δ. Same blot was probed with actin antibody as loading controls. […] U937 cells were treated with various concentrations of bortezomib and cells were subjected to subcellular fractionation to isolate mitochondria and cytoplasm. The whole cell lysates and fractions were analyzed with antibody against PKC-δ. […] U937 cells were treated with bortezomib (50 ng/ml) and/or caspase inhibitor BAF (30 μM) for 16 hours. Whole cell lysates were analyzed by western blotting with the PKC-δ antibody. […] Cells were treated with PMA (200 nM) for 6, 9 and 12 hours and subjected to subcellular fractionation. Western blot was probed with the PKC-δ antibody. M: mitochondria; C: cytoplasm.
(§1) U937 cells were grown in RPMI with 10% fetal bovine serum and L-glutamine. Bortezomib was from Millennium Pharmaceutical Corp. (Cambridge, Mass.). Rottlerin was from Sigma (St. Louis, Mo.). PKC-δ monoclonal antibody was from BD Transduction Laboratories (San Jose, Calif.). Boc-D(Ome)-FMK (BAF) and Go6976 were from Calbiochem (San Diego, Calif.). The TUNEL assay (terminal deoxynucleotidyltransferase-mediated dUTP-biotin nick end labeling) was from Roche (Switzerland). Subcellular fractionation and western blotting were performed as described (Chen Jet al. Mol Cancer Ther. 2002;1:961-967).

The test system of data set [2] is U937 cells. The data set is described as follows: TUNEL assay of apoptosis in U937 cells. Format: cell-based. To be noted: for TUNEL positivity, time course: 50 ng/ml bortezomib. The procedure:
[…] Cells were harvested and fixed for TUNEL assays. The percentages of the TUNEL positive cells are indicated.
as §1

For data set [3], the system named is HeLa cells. The data set can be described thus: Apoptosis by PI staining and flow cytometry (subG1 population) in HeLa cells. Format: cell-based. The note with it: HeLa cells, 50 μM Z-VAD or 5 μM CsA 30 min, then AD198 16 h. The protocol:
Cell culture, transfection and treatment—HeLa cells were cultured in Dulbecco's modified Eagle's medium (DMEM) containing 10% fetal bovine serum, 2 mM L-glutamine and penicillin (100 units/ml)-streptomycin (100 μg/ml) at 37° C. in a humidified 5% CO2 atmosphere. HeLa cells at 90% confluence were transfected with different mammalian expression vectors using Lipofectamin 2000 according to the manufacturer's protocol (Invitrogen Inc., Carlsbad, Calif.). At 24 h or 48 h after transfection, cells were treated with 1:100 dilution of AD198 that was dissolved in dimethyl sulfoxide (DMSO). For down-regulation of PLS3, HeLa cells at 50% confluence were transfected with siRNA against PLS3 or a scrambled control. At 48 h, cells were treated with AD198 for 16 h and harvested for flow cytometry. The whole cell lysate was extracted for analysis with Western blotting.
Analysis of apoptosis and determination of the transmembrane potential in mitochondria—Cell death was quantified by propidium iodide (PI) staining, followed by flow cytometry (Becton-Dickinson). HeLa cells were fixed in 0.5 ml cold 70% ethanol at −20° C. overnight. Cell pellet were resuspended in 300 μl of PBS containing 0.025 mg/ml PI, 0.05% Triton X-100, 0.1 mg/ml RNase A and incubated at room temperature for 30 min. The DNA content was evaluated by FACScan. For mitochondrial potential analysis, HeLa cells were incubated with MitoTracker Green at 37° C. for 20 min. The cells were collected and washed with PBS and analyzed by FACScan.
Cell culture, transfection, selection and treatment—HeLa cells were cultured in Dulbecco's modified Eagle's medium (DMEM) with 10% fetal bovine serum, 2 mM L-glutamine, 100 units/ml penicillin and 100 μg/ml streptomycin at 37° C. HeLa cells at 90% confluence were transfected with different mammalian expression vectors or siRNA using Lipofectamin 2000 according to the manufacturer's protocol (Invitrogen Inc., Carlsbad, Calif.). At 48 h after transfection, cells were incubated with 5 μM AD198 or dimethyl sulfoxide (DMSO) for 4 h or 16 h. After transfection, cells were selected with 1 mg/ml G418 for 2 wk. After corresponding mock-transfected cells were killed by G418, the concentration of G418 was decreased to 0.5 mg/ml and maintained for another 2 wk. The whole cell lysates or subcellular fractions were extracted for Western blotting analysis (Liu et al. (2003)).
Analysis of apoptosis—HeLa cells were harvested and fixed in 70% ethanol at −20° C. overnight. Cells were then washed with PBS and stained with 0.025 mg/ml propidium iodide (PI), 0.05% Triton X-100, 0.1 mg/ml RNase A for 30 min at room temperature. The DNA content was analyzed by FACScan (Becton-Dickinson), and the subG0/G1 population was used to represent apoptosis.

For data set [4], the system named is HeLa cells. The data set can be described thus: Mitochondrial potential by MitoTracker Green and flow cytometry in HeLa cells. To be noted: 50 μM Z-VAD or 5 μM CsA 30 min, then AD198 16 h. Format: cell-based.
Procedure: Cells were incubated with MitoTracker Green at 37° C. for 20 min followed by flow cytometry analysis. The histogram represents the means±standard deviations from three independent experiments.
Data set [5] has as its system PLS3. The data set can be described thus: PLS3 threonine phosphorylation: Ni-bead pulldown of His-tagged PLS3, Western blot with PT antibody, HeLa cells. The format is cell-based. The note with it: HeLa cells, AD198 (5 μM) along with Z-VAD or CsA, 2 h. The procedure: Pulldown of His-tagged proteins from transfected HeLa cells—Transfected HeLa cells were washed with ice-cold phosphate-buffered saline (PBS) and incubated in the lysis buffer (50 mM NaH2PO4, 500 mM NaCl, 20 mM imidazole, 1% Triton X-100, 20 mM 2-mercaptoethanol, pH8.0) for 5 min and sonicated briefly on ice. The lysates were centrifuged at 10,000×g for 10 min at 4° C. The supernatant was saved and the protein concentration was measured with the Bio-Rad protein assay (Bio-Rad Laboratories, Hercules, Calif.) and adjusted to same concentrations for each sample. The supernatants were incubated with Ni-beads on a shaker for 2 h at 4° C. Beads were then pelleted at 800×g for 2 min at 4° C. and washed with ice-cold wash buffer (50 mM NaH2PO4, 500 mM NaCl, 20 mM imidazole, 1% Triton X-100, pH8.0) for five times. Beads were resuspended in SDS sample buffer and analyzed by Western blotting.
Western blot analysis—Equal amounts of protein were analyzed by 10% SDS-PAGE and electrotransferred to Immobilon-P membranes (Millipore Corporation, Bedford, Mass.). Monoclonal PKC-δ, PT, and β-actin and polyclonal VDAC antibodies were used at 1:1,000 and polyclonal PLS3 antibody was used at 1:2,000 for immunoblotting. Secondary anti-mouse or anti-rabbit antibodies conjugated with horseradish peroxidase were used at 1:2,000 and incubated with the membrane for 1 h at room temperature. […]
In general terms: A western blot detects proteins with antibodies after separation by electrophoresis.

For data set [6] the following is noted: monomeric boronic acid; pH range of 2-6.5; cited from earlier work.
Setting [7] is: U937 cells, 2 and 4 hours, PMA 200 nM, bortezomib 100 ng/ml.
Where [8] appears, read: U937 cells, bortezomib 16 hours.

With `COC(=O)CC(NC(=O)OC(C)(C)C)C(=O)CF` (stereo not drawn) [BAF, Boc-D(Ome)-FMK], the “effect on bortezomib-induced 32 kD PKC-δ band” value in data set [1] (bortezomib (50 ng/ml) and BAF (30 μM), 16 hours) was “disappearance of this 32 kD band”.

For `Cn1c2ccccc2c2c3c(c4c5ccccc5n(CCC#N)c4c21)CNC3=O` [Go6976], in data set [2] (Go6976 (200 nM) with bortezomib, 16 hours), the “effect on bortezomib-induced apoptosis (TUNEL)” value was “could not prevent bortezomib-induced apoptosis”.

Regarding `CCCCCCCCCCCCCC(=O)O[C@@H]1[C@@H](C)[C@@]2(O)[C@@H](C=C(CO)C[C@]3(O)C(=O)C(C)=C[C@@H]23)[C@@H]2C(C)(C)[C@]12OC(C)=O` [PMA], the PKC-δ protein level result in data set [1] (setting [7]) was “down-regulated PKC-δ”. In addition, the “PKC-δ localization after subcellular fractionation” value in data set [1] (U937 cells, PMA (200 nM) 6, 9 and 12 hours) was “full-length PKC-δ and its degradation products in mitochondria”.

In the case of `CC(NC(=O)C(NC(=O)OCc1ccccc1)C(C)C)C(=O)NC(CC(=O)O)C(=O)CF` (stereo not drawn) [Z-VAD] (Cbz-Val-Ala-Asp-CH2F; configuration not given here), the “effect on AD198-induced apoptosis” value in data set [3] is recorded as “suppressed”. Moreover, the “effect on AD198-induced mitochondrial permeability transition / loss of mitochondrial potential” value in data set [4] is listed as “could not block”. Further, the “effect on AD198-induced threonine phosphorylation of PLS3” value in data set [5] is on record as “not affected”.

In the case of `CC(C)C[C@H](NC(=O)[C@H](Cc1ccccc1)NC(=O)c1cnccn1)B(O)O` [bortezomib, [(1R)-3-methyl-1-[[(2S)-1-oxo-3-phenyl-2-[(pyrazinylcarbonyl)amino]propyl]amino]butyl] boronic acid], the “TUNEL positivity, time course” value in data set [2] (6 hours) is “did not become TUNEL positive”; in data set [2] (16 h), “strongly positive”. The molecule also had an IC50 in data set [2] (Homo sapiens, U-937, U937 cells) of 0.01 to 0.05 mg/L (≈ 0.026 to 0.13 µM). Moreover, in data set [2] (U937 cells), the “concentration at which cells became TUNEL positive” value amounted to 5 ng/mL. In addition, the “apoptosis by TUNEL assays” value in data set [2] (bortezomib 5 ng/ml, 16 hours) worked out at 8.02%; in data set [2] (bortezomib 10 ng/ml, 16 hours), 19.85%; in data set [2] (bortezomib 50 ng/ml, 16 hours) it was 76.07%. Moreover, the figures for the PKC-δ protein level result in data set [1] (setting [7]) and in data set [1] (setting [8]) were “induced an increase of PKC-δ” and “the level of PKC-δ decreased”, respectively. Further, the “32 kD PKC-δ fragment” value in data set [1] (setting [8]) was “new band at 32 kD”. Besides, in data set [6], the solubility in water was 3.3 to 3.8 mg/mL.

Turning to `CC(=O)c1c(O)c(C)c(O)c(Cc2c(O)c3c(c(C(=O)/C=C/c4ccccc4)c2O)OC(C)(C)C=C3)c1O` [rottlerin], the “TUNEL positive cells with addition of rottlerin” value in data set [2] (bortezomib 5 ng/ml + rottlerin (10 μM), 16 hours) is given as 4.35%; in data set [2] (bortezomib 10 ng/ml + rottlerin (10 μM), 16 hours) it was 8.55%; in data set [2] (bortezomib 50 ng/ml + rottlerin (10 μM), 16 hours) it was 33.07%.

As a reminder, the IC50 is the point on the concentration scale where inhibition reaches its midpoint.
